Measurements from PubChem BioAssay AID330 (DTP/NCI, 2004).
“And” between values parts separate entries of the source, which are not always exact repeats. Identical values can stand only once. Inconclusive results and toxic doses are left out.

System: P388 leukemia ip, CD2F1 mice, survival T/C
Assay: NCI In Vivo Anticancer Drug Screen. Data for tumor model P388 Leukemia (intraperitoneal) in CD2F1 (CDF1) mice
Conditions: endpoint: median survival time, higher = longer survival
Method in brief: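 Mice carrying the transplanted tumor received test compound or vehicle. Survival was recorded in each group, and the value is the treated-group measurement divided by that of the vehicle-treated control group.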

[1] = dose: 100.0 mg/kg/injection, schedule: Q04DX003 (ip), vehicle: saline with Tween-80
[2] = dose: 200.0 mg/kg/injection, schedule: Q04DX003 (ip), vehicle: saline with Tween-80
[3] = dose: 50.0 mg/kg/injection, schedule: Q01DX009 (ip), vehicle: saline with Tween-80
[4] = dose: 100.0 mg/kg/injection, schedule: Q01DX009 (ip), vehicle: saline with Tween-80
[5] = dose: 200.0 mg/kg/injection, schedule: Q01DX009 (ip), vehicle: saline with Tween-80
[6] = dose: 400.0 mg/kg/injection, schedule: Q01DX009 (ip), vehicle: saline with Tween-80
[7] = dose: 50.0 mg/kg/injection, schedule: Q01DX005 (ip), vehicle: saline with Tween-80
[8] = dose: 100.0 mg/kg/injection, schedule: Q01DX005 (ip), vehicle: saline with Tween-80
[9] = dose: 200.0 mg/kg/injection, schedule: Q01DX005 (ip), vehicle: saline with Tween-80

Compound: CCCCCCC(=O)/C=C/c1ccc(OC(=O)c2ccc([N+](=O)[O-])cc2)cc1
- T/C (dose: 12.5 mg/kg/injection, schedule: Q01DX009 (ip), vehicle: saline): 105 % of control
- T/C (dose: 25.0 mg/kg/injection, schedule: Q01DX009 (ip), vehicle: saline): 100 % of control
- T/C (dose: 50.0 mg/kg/injection, schedule: Q01DX009 (ip), vehicle: saline): 103 % of control and 97 % of control
- T/C (dose: 100.0 mg/kg/injection, schedule: Q01DX009 (ip), vehicle: saline): 92 % of control
- T/C (dose: 200.0 mg/kg/injection, schedule: Q01DX009 (ip), vehicle: saline): 92 % of control

Compound: O=C1CSC(c2ccc(Cl)cc2)N1CCN1C(=O)CSC1c1ccc(Cl)cc1 (stereo not drawn)
- T/C [1]: 95 % of control
- T/C [2]: 93 % of control
- T/C (dose: 400.0 mg/kg/injection, schedule: Q04DX003 (ip), vehicle: saline with Tween-80): 88 % of control

Compound: Cc1cc(C)c2nccc(/C=C/c3ccc(N(C)C)cc3)c2c1
- T/C [3]: 110 % of control
- T/C [4]: 108 % of control
- T/C [5]: 116 % of control
- T/C [6]: 91 % of control

Compound: OCC1OC(n2nc(Cl)c3ccccc32)C(O)C1O (stereo not drawn)
- T/C (dose: 6.25 mg/kg/injection, schedule: Q01DX009 (ip), vehicle: saline with Tween-80): 102 % of control
- T/C (dose: 12.5 mg/kg/injection, schedule: Q01DX009 (ip), vehicle: saline with Tween-80): 98 % of control
- T/C (dose: 25.0 mg/kg/injection, schedule: Q01DX009 (ip), vehicle: saline with Tween-80): 94 % of control
- T/C (dose: 32.0 mg/kg/injection, schedule: Q01DX002 (ip), vehicle: saline with Tween-80): 104 % of control
- T/C (dose: 64.0 mg/kg/injection, schedule: Q01DX002 (ip), vehicle: saline with Tween-80): 106 % of control and 107 % of control
- T/C [4]: 91 % of control
- T/C (dose: 128.0 mg/kg/injection, schedule: Q01DX002 (ip), vehicle: saline with Tween-80): 106 % of control and 107 % of control

Compound: COc1ccc2cc1Oc1ccc(cc1)CC1c3cc(OC)c(cc3CCN1C)Oc1c(O)c(OC)cc3c1C(C2)N(C)CC3 (stereo not drawn)
- T/C (dose: 3.88 mg/kg/injection, schedule: Q01DX005 (ip), vehicle: Klucel (hydroxypropylcellulose) (HPC)): 103 % of control
- T/C (dose: 7.75 mg/kg/injection, schedule: Q01DX005 (ip), vehicle: Klucel (hydroxypropylcellulose) (HPC)): 95 % of control
- T/C (dose: 15.5 mg/kg/injection, schedule: Q01DX005 (ip), vehicle: Klucel (hydroxypropylcellulose) (HPC)): 95 % of control
- T/C (dose: 31.0 mg/kg/injection, schedule: Q01DX005 (ip), vehicle: Klucel (hydroxypropylcellulose) (HPC)): 95 % of control

Compound: CC1=C2CC(=O)OC(c3ccoc3)C2(C)CCC1C1(CC(=O)O)C2COC(=O)CC2OC1(C)C (stereo not drawn)
- T/C (dose: 0.75 mg/kg/injection, schedule: Q01DX009 (ip), vehicle: saline + alcohol): 99 % of control
- T/C (dose: 1.5 mg/kg/injection, schedule: Q01DX009 (ip), vehicle: saline + alcohol): 97 % of control
- T/C (dose: 3.0 mg/kg/injection, schedule: Q01DX009 (ip), vehicle: saline + alcohol): 106 % of control
- T/C (dose: 6.0 mg/kg/injection, schedule: Q01DX009 (ip), vehicle: saline + alcohol): 101 % of control

Compound: CN(C)c1nc(N)nc2c1nc(Cl)n2C1OC(CO)C(O)C1O (stereo not drawn)
- T/C [7]: 99 % of control
- T/C [8]: 100 % of control
- T/C [9]: 100 % of control

Compound: CCCCCCCCCc1cc(=O)[nH]c(=S)[nH]1
- T/C (dose: 15.0 mg/kg/injection, schedule: Q01DX005 (ip), vehicle: Klucel (hydroxypropylcellulose) (HPC)): 99 % of control
- T/C (dose: 30.0 mg/kg/injection, schedule: Q01DX005 (ip), vehicle: Klucel (hydroxypropylcellulose) (HPC)): 102 % of control
- T/C (dose: 60.0 mg/kg/injection, schedule: Q01DX005 (ip), vehicle: Klucel (hydroxypropylcellulose) (HPC)): 90 % of control and 93 % of control
- T/C (dose: 120.0 mg/kg/injection, schedule: Q01DX005 (ip), vehicle: Klucel (hydroxypropylcellulose) (HPC)): 100 % of control

Compound: COC(=O)C(Br)c1cccc(OC)c1 (stereo not drawn)
- T/C (dose: 132.0 mg/kg/injection, schedule: Q04DX003 (ip), vehicle: saline with Tween-80): 100 % of control
- T/C (dose: 178.0 mg/kg/injection, schedule: Q01DX009 (ip), vehicle: saline with Tween-80): 100 % of control
- T/C [2]: 100 % of control
- T/C (dose: 266.0 mg/kg/injection, schedule: Q01DX009 (ip), vehicle: saline with Tween-80): 100 % of control
- T/C (dose: 300.0 mg/kg/injection, schedule: Q04DX003 (ip), vehicle: saline with Tween-80): 100 % of control
- T/C [6]: 100 % of control

Compound: O=C1NN2CCCN=C2c2cccnc21
- T/C (dose: 100.0 mg/kg/injection, schedule: Q04DX002 (ip), vehicle: saline with Tween-80): 101 % of control
- T/C (dose: 200.0 mg/kg/injection, schedule: Q04DX002 (ip), vehicle: saline with Tween-80): 98 % of control
- T/C (dose: 400.0 mg/kg/injection, schedule: Q04DX002 (ip), vehicle: saline with Tween-80): 101 % of control

Compound: O=C1OCCOCCOCCOCCOC(=O)c2cccc1c2
- T/C (dose: 100.0 mg/kg/injection, schedule: Q04DX003 (ip), vehicle: suspension in saline): 100 % of control
- T/C (dose: 200.0 mg/kg/injection, schedule: Q04DX003 (ip), vehicle: suspension in saline): 104 % of control
- T/C (dose: 400.0 mg/kg/injection, schedule: Q04DX003 (ip), vehicle: suspension in saline): 99 % of control

Compound: NC(=S)N/N=C/c1ccc(O)cn1
- T/C (dose: 18.8 mg/kg/injection, schedule: Q01DX009 (ip), vehicle: other): 152 % of control and 185 % of control
- T/C (dose: 18.8 mg/kg/injection, schedule: Q01DX009 (ip), vehicle: saline with Tween-80): 156 % of control
- T/C (dose: 25.0 mg/kg/injection, schedule: Q01DX001 (ip), vehicle: Klucel (hydroxypropylcellulose) (HPC)): 118 % of control and 119 % of control
- T/C (dose: 25.0 mg/kg/injection, schedule: Q04DX002 (ip), vehicle: Klucel (hydroxypropylcellulose) (HPC)): 113 % of control and 116 % of control
- T/C (dose: 25.0 mg/kg/injection, schedule: Q04DX003 (ip), vehicle: Klucel (hydroxypropylcellulose) (HPC)): 115 % of control
- T/C (dose: 37.5 mg/kg/injection, schedule: Q01DX009 (ip), vehicle: other): 175 % of control and 221 % of control
- T/C (dose: 37.5 mg/kg/injection, schedule: Q01DX009 (ip), vehicle: saline): 172 % of control
- T/C (dose: 75.0 mg/kg/injection, schedule: Q01DX009 (ip), vehicle: saline with Tween-80): 173 % of control
- T/C (dose: 75.0 mg/kg/injection, schedule: Q01DX009 (ip), vehicle: saline): 160 % of control

Compound: CCCCCCCCC#CC(=O)OC
- T/C [3]: 97 % of control
- T/C [4]: 92 % of control
- T/C [5]: 97 % of control

Compound: COC(=O)C(=O)C(C(=O)c1ccc(F)cc1)c1nc2n(c1O)C(=N)N=N2 (stereo not drawn)
- T/C (dose: 60.0 mg/kg/injection, schedule: Q01DX005 (ip), vehicle: saline with Tween-80): 102 % of control
- T/C (dose: 120.0 mg/kg/injection, schedule: Q01DX005 (ip), vehicle: saline with Tween-80): 86 % of control

Compound: C/C(N=NC(=S)N1CCCC(C)C1)=C1\C=CC=CN1O (stereo not drawn)
- T/C [7]: 101 % of control
- T/C [8]: 98 % of control
- T/C [9]: 112 % of control

Compound: Nc1[nH]nc2nc(-c3ccc(Cl)cc3)cnc12
- T/C (dose: 50.0 mg/kg/injection, schedule: Q04DX003 (ip), vehicle: saline with Tween-80): 100 % of control
- T/C [1]: 100 % of control
- T/C [2]: 100 % of control

Compound: NCCCn1[nH]c(=O)c2ccncc2c1=O
- T/C (dose: 100.0 mg/kg/injection, schedule: Q04DX002 (ip), vehicle: saline): 97 % of control
- T/C (dose: 200.0 mg/kg/injection, schedule: Q04DX002 (ip), vehicle: saline): 97 % of control
- T/C (dose: 400.0 mg/kg/injection, schedule: Q04DX002 (ip), vehicle: saline): 95 % of control

Compound: CC1(C)N=C(N)N=C(N)N1c1ccc(CCCCc2ccc(S(=O)(=O)F)cc2)c(Cl)c1
- T/C (dose: 13.2 mg/kg/injection, schedule: Q01DX009 (ip), vehicle: saline): 154 % of control
- T/C (dose: 20.0 mg/kg/injection, schedule: Q01DX009 (ip), vehicle: saline): 159 % of control
- T/C (dose: 30.0 mg/kg/injection, schedule: Q01DX009 (ip), vehicle: saline): 159 % of control
- T/C (dose: 45.0 mg/kg/injection, schedule: Q01DX009 (ip), vehicle: saline): 186 % of control

Compound: O=C(Oc1ccccc1[N+](=O)[O-])C1CCCN1C(=O)OCc1ccccc1 (stereo not drawn)
- T/C (dose: 25.0 mg/kg/injection, schedule: Q01DX005 (ip), vehicle: saline with Tween-80): 104 % of control
- T/C [7]: 109 % of control
- T/C [8]: 102 % of control
- T/C [9]: 99 % of control

Compound: CC[n+]1c(/C=C/c2ccc(N(C)C)cc2)ccc2ccccc21
- T/C (dose: 0.19 mg/kg/injection, schedule: Q01DX009 (ip), vehicle: saline): 100 % of control
- T/C (dose: 0.39 mg/kg/injection, schedule: Q01DX009 (ip), vehicle: saline): 86 % of control
- T/C (dose: 0.78 mg/kg/injection, schedule: Q01DX009 (ip), vehicle: saline): 114 % of control
- T/C (dose: 1.56 mg/kg/injection, schedule: Q01DX009 (ip), vehicle: saline): 96 % of control

Compound: Nc1nc2c(C(=O)N3CCCC3)nnn2c2ccccc12
- T/C [3]: 93 % of control
- T/C [4]: 94 % of control
